Calls of active or inactive are those of the source. The rule behind the calls is not given here.
Experiments:
[1] = molecular target: Epidermal growth factor receptor (Homo sapiens, UniProt P00533, L858R/T790M); test: Inhibition of EGFR L858R/T790M double mutant (unknown origin) using polyE4Y1 as substrate incubated for 5 mins with compound followed by substrate addition measured after 60 mins in presence of ATP by ADP-Glo reagent based assay
[2] = molecular target: Epidermal growth factor receptor (Homo sapiens, UniProt P00533, C797S/EX19DEL/T790M)
A-431 = test: Antiproliferative activity against human A-431 cells assessed as inhibition of cell growth measured after 72 hrs by CCK8 assay; format: functional, cell-based; conditions: A-431, 72 h
PC-9 [3] = test: Antiproliferative activity against human PC-9 cells assessed as inhibition of cell growth measured after 72 hrs by CCK8 assay; format: functional, cell-based; conditions: PC-9, 72 h
NCI-H1975 = test: Antiproliferative activity against human NCI-H1975 cells assessed as inhibition of cell growth measured after 72 hrs by CCK8 assay; format: functional, cell-based; conditions: NCI-H1975, 72 h
PC-9 [4] = format: functional, cell-based; conditions: Homo sapiens, PC-9, 72 h
[5] = Inhibition of colony formation in human H1975-TM cells at 250 nM incubated for 10 days by crystal violet staining based analysis; format: functional; conditions: time 10 day
[6] = Induction of cell cycle arrest in human H1975-TM cells assessed as accumulation at G2/M phase at 50 nM measured after 24 hrs by RNase A/propidium iodide staining based flow cytometric analysis (reference value: 17.6 %); format: functional
[7] = Induction of cell cycle arrest in human H1975-TM cells assessed as accumulation at G2/M phase at 500 nM measured after 24 hrs by RNase A/propidium iodide staining based flow cytometric analysis (reference value: 17.6 %); format: functional
[8] = Induction of cell cycle arrest in human H1975-TM cells assessed as accumulation at S phase at 50 nM measured after 24 hrs by RNase A/propidium iodide staining based flow cytometric analysis (reference value: 18.1 %); format: functional
[9] = Induction of cell cycle arrest in human H1975-TM cells assessed as accumulation at G0/G1 phase at 50 nM measured after 24 hrs by RNase A/propidium iodide staining based flow cytometric analysis (reference value: 64.3 %); format: functional
[10] = Induction of cell cycle arrest in human H1975-TM cells assessed as accumulation at G0/G1 phase at 250 nM measured after 24 hrs by RNase A/propidium iodide staining based flow cytometric analysis (reference value: 64.3 %); format: functional
[11] = Induction of cell cycle arrest in human H1975-TM cells assessed as accumulation at G0/G1 phase at 500 nM measured after 24 hrs by RNase A/propidium iodide staining based flow cytometric analysis (reference value: 64.3 %); format: functional
[12] = Induction of apoptosis in human H1975-TM cells assessed as apoptotic cells at 50 nM measured after 24 by Annexin V-FITC and propidium iodide staining based flow cytometric analysis (reference value: 7.08 %); format: functional; conditions: time 24 hrs
[13] = Induction of apoptosis in human H1975-TM cells assessed as apoptotic cells at 250 nM measured after 24 by Annexin V-FITC and propidium iodide staining based flow cytometric analysis (reference value: 7.08 %); format: functional; conditions: time 24 hrs
[14] = Induction of apoptosis in human H1975-TM cells assessed as apoptotic cells at 500 nM measured after 24 by Annexin V-FITC and propidium iodide staining based flow cytometric analysis (reference value: 7.08 %); format: functional; conditions: time 24 hrs
H1975-TM [15] = test: Downregulation of EGFR phosphorylation in human H1975-TM cells at 50 to 1000 nM measured after 24 hrs by Western blot analysis; format: functional, cell-based; conditions: dose 50-1000 nM
H1975-TM [16] = test: Downregulation of AKT level in human H1975-TM cells at 50 to 1000 nM measured after 24 hrs by Western blot analysis; format: functional, cell-based; conditions: dose 50-1000 nM
H1975-TM [17] = test: Downregulation of ERK level in human H1975-TM cells at 50 to 1000 nM measured after 24 hrs by Western blot analysis; format: functional, cell-based; conditions: dose 50-1000 nM
[18] = Downregulation of EGFR phosphorylation in human H1975-TM cells at 1000 nM measured after 24 hrs by Western blot analysis; format: functional
[19] = Cmax in Sprague-Dawley rat at 5 mg/kg, iv measured upto 24 hrs by HPLC-MS/MS analysis; format: ADME, organism-based; set-up: time < 24 hrs, dose 5 mg/kg, route iv; conditions: in vivo
[20] = AUC (0 to infinity) in Sprague-Dawley rat at 50 mg/kg, po measured upto 24 hrs by HPLC-MS/MS analysis; format: ADME, organism-based; set-up: dose 50 mg/kg, time < 24 hrs, route po; conditions: in vivo
[21] = MRT (0 to infinity) in Sprague-Dawley rat at 5 mg/kg, iv measured upto 24 hrs by HPLC-MS/MS analysis; format: ADME, organism-based; conditions: in vivo
[22] = Tmax in Sprague-Dawley rat at 5 mg/kg, iv measured upto 24 hrs by HPLC-MS/MS analysis; format: ADME, organism-based; conditions: in vivo
[23] = Tmax in Sprague-Dawley rat at 50 mg/kg, po measured upto 24 hrs by HPLC-MS/MS analysis; format: ADME, organism-based; conditions: in vivo
[24] = Half life in Sprague-Dawley rat at 5 mg/kg, iv measured upto 24 hrs by HPLC-MS/MS analysis; format: ADME, organism-based; conditions: in vivo
[25] = Half life in Sprague-Dawley rat at 50 mg/kg, po measured upto 24 hrs by HPLC-MS/MS analysis; format: ADME, organism-based; conditions: in vivo
[26] = Oral bioavailability in Sprague-Dawley rat at 50 mg/kg measured upto 24 hrs by HPLC-MS/MS analysis; format: ADME, organism-based; conditions: in vivo
[27] = Antitumor activity against human H1975-TM cells xenografted in BALB/c mouse assessed as tumor growth inhibition at 25 mg/kg, po measured after 25 days; format: functional; conditions: time 25 day
[28] = Toxicity in BALB/c mouse xenografted with human H1975-TM cells assessed as change in body weight at 25 to 100 mg/kg, po measured after 25 days; format: organism-based; conditions: in vivo, 600 h, dose 25-100 mg/kg, time 25 day
[29] = Toxicity in BALB/c mouse xenografted with human H1975-TM cells assessed as appearance of lesions in heart at 25 to 100 mg/kg, po measured after 25 days by hematoxylin-eosin staining based analysis; format: organism-based; conditions: in vivo, 600 h, dose 25-100 mg/kg, time 25 day
[30] = Toxicity in BALB/c mouse xenografted with human H1975-TM cells assessed as appearance of lesions in spleen at 25 to 100 mg/kg, po measured after 25 days by hematoxylin-eosin staining based analysis; format: organism-based; conditions: in vivo, 600 h, dose 25-100 mg/kg, time 25 day
[31] = Toxicity in BALB/c mouse xenografted with human H1975-TM cells assessed as appearance of lesions in lung at 25 to 100 mg/kg, po measured after 25 days by hematoxylin-eosin staining based analysis; format: organism-based; conditions: in vivo, 600 h, dose 25-100 mg/kg, time 25 day
[32] = Toxicity in BALB/c mouse xenografted with human H1975-TM cells assessed as appearance of lesions in kidney at 25 to 100 mg/kg, po measured after 25 days by hematoxylin-eosin staining based analysis; format: organism-based; conditions: in vivo, 600 h, dose 25-100 mg/kg, time 25 day
[33] = molecular target: Epidermal growth factor receptor (Homo sapiens, UniProt P00533, C797S/L858R/T790M)
[34] = molecular target: Epidermal growth factor receptor (Homo sapiens, UniProt P00533)
Description: Inhibition of wild-type EGFR (unknown origin) using polyE4Y1 as substrate incubated for 5 mins with compound followed by substrate addition measured after 60 mins in presence of ATP by ADP-Glo reagent based assay

H1975-TM [35] = conditions: Homo sapiens, dose 10-500 nM, time 10.0 day

Sequence of Epidermal growth factor receptor (Homo sapiens, UniProt P00533, C797S/L858R/T790M) (P00533 25-1210 T790M/C797S/L858R limits assumed): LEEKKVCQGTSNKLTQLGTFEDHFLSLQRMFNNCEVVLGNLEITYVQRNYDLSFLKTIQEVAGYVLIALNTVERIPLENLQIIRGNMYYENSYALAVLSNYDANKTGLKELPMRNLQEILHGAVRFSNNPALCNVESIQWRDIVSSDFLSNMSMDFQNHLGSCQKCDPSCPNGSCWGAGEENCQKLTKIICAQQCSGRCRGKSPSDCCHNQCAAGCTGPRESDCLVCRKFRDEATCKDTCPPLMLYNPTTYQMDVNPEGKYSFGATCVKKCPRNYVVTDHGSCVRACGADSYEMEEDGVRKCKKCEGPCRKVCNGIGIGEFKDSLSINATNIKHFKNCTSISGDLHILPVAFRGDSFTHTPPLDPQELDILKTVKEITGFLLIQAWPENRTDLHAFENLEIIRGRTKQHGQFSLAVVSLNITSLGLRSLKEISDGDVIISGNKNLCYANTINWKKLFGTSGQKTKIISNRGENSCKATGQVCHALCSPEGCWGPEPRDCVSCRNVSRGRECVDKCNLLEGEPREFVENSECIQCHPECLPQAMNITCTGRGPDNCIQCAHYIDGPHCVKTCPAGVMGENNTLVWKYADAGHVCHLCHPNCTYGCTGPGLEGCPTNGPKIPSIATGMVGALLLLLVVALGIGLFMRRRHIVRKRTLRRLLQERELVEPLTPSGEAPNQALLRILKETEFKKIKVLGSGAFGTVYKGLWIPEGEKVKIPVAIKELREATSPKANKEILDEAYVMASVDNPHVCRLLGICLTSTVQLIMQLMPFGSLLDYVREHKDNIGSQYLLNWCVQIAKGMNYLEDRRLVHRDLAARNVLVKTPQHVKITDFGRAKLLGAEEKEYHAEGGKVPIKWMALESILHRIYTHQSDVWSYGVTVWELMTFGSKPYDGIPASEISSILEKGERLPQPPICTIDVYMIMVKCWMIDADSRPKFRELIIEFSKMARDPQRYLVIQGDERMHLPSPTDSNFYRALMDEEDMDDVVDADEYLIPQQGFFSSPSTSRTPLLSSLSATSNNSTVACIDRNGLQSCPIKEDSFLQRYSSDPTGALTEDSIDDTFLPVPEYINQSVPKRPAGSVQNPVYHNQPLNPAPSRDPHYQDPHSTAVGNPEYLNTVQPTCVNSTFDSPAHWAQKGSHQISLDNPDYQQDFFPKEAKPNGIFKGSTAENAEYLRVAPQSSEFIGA
Sequence of Epidermal growth factor receptor (Homo sapiens, UniProt P00533, C797S/EX19DEL/T790M) (P00533 whole entry, looked up, stated change not applied): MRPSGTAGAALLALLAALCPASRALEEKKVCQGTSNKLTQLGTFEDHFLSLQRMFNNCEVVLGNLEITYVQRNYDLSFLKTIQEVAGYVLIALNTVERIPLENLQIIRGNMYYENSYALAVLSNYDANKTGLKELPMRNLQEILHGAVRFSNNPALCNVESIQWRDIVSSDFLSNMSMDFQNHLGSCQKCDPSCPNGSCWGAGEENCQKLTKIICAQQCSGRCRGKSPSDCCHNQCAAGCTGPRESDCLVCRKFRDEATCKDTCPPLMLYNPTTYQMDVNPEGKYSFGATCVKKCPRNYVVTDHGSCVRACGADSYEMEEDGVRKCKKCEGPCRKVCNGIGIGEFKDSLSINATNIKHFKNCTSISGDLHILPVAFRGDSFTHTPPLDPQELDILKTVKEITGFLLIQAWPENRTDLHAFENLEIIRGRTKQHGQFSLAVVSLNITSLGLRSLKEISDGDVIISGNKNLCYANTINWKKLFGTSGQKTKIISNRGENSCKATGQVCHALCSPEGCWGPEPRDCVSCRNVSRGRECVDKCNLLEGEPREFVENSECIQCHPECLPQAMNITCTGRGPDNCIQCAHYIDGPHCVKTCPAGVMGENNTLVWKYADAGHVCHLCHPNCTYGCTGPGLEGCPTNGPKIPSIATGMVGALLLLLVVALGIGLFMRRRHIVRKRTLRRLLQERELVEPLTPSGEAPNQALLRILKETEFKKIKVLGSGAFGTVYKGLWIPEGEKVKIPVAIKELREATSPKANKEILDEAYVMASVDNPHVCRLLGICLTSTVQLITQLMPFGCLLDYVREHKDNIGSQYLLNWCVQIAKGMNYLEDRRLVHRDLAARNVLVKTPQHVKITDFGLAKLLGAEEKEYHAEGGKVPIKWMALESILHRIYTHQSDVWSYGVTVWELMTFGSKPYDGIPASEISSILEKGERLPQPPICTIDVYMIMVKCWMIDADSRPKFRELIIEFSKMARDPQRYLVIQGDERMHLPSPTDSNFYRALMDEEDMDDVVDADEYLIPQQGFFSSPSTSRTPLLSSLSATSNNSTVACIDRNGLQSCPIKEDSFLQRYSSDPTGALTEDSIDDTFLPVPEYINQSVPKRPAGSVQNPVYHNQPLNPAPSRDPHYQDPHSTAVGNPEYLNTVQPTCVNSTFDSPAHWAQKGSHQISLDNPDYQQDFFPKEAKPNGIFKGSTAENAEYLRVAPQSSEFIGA
Sequence of Epidermal growth factor receptor (Homo sapiens, UniProt P00533) (P00533 whole entry): as the sequence (P00533 whole entry, looked up, stated change not applied) above
Sequence of Epidermal growth factor receptor (Homo sapiens, UniProt P00533, L858R/T790M) (P00533 25-1210 T790M/L858R limits assumed): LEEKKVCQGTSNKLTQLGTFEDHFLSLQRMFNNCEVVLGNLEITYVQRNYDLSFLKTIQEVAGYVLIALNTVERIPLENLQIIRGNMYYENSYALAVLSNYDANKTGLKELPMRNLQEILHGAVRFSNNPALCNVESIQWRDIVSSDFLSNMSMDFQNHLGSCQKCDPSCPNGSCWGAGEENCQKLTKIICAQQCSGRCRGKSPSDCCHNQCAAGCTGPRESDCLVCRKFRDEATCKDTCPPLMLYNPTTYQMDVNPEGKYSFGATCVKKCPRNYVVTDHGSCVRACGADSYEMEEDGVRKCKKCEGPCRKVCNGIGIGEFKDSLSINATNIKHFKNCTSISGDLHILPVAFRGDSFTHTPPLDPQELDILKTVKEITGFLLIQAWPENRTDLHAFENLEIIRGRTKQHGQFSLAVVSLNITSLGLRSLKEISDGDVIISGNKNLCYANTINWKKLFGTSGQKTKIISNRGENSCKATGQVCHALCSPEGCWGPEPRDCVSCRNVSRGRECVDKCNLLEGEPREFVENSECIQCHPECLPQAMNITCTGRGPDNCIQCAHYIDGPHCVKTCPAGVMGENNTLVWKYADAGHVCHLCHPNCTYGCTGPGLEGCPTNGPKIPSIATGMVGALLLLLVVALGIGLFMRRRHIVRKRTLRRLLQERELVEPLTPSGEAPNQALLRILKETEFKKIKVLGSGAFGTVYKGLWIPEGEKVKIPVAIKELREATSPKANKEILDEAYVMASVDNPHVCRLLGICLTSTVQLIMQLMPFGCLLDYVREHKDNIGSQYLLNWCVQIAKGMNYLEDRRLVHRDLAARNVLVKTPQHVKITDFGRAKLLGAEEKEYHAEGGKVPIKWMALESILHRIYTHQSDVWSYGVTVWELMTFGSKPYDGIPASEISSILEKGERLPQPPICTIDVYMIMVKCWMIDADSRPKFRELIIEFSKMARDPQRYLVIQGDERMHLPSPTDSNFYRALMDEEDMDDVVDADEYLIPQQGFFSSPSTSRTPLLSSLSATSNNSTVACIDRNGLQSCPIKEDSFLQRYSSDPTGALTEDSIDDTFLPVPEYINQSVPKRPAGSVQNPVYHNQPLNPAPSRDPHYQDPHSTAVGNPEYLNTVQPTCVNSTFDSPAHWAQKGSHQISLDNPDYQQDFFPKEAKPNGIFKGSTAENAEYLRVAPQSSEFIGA

IC50 [1]: 21 nM
IC50 [2]: 33 nM
IC50 (A-431): 1400 nM
IC50 (PC-9 [3]): 5 nM
IC50 (NCI-H1975): 210 nM
IC50 (PC-9 [4]): 30 nM
Cmax [19]: 761 ng/mL
AUC(0-inf) [20]: 4780 ng·h/mL
MRT inf [21]: 4.37 h
Tmax [22]: 4.8 min
Tmax [23]: 2 h
half-life [24]: 282 min
half-life [25]: 509 min
bioavailability [26]: 30.7%
IC50 [33]: 5.1 nM
IC50 [34]: 106 nM
SMILES: CCS(=O)(=O)N1CCC(c2nc(-c3ccc(F)cc3)c(-c3ccnc(Nc4ccc5c(ccn5CCN(C)C)c4)n3)s2)CC1
inhibition (INH) [5]: 100%
Activity [6]: 14.4%
Activity [7]: 13.4%
Activity [8]: 17.3%
Activity [9]: 68.3%
Activity [10]: 70.3%
Activity [11]: 76.3%
Activity [12]: 19.07%
Activity [13]: 19.88%
Activity [14]: 27.8%
Activity (H1975-TM [15]): Active
Activity (H1975-TM [16]): Active
Activity (H1975-TM [17]): Active
Activity [18]: 100%
TGI [27]: 47.5%
Activity [28]: Non-Toxic
Activity [29]: Non-Toxic
Activity [30]: Non-Toxic
Activity [31]: Non-Toxic
Activity [32]: Non-Toxic
inhibition (H1975-TM [35]): Dose-Dependent Effect

— ChEMBL document CHEMBL5370655
